Laboratory results taken from patent publication US9738631B2, “Compositions and methods for the treatment of neurological disorders” (CELLIXBIO PRIVATE LIMITED, priority 2012, dated 2017).

Tests used:
[1] = Pharmacokinetic profiles over 24 hours in normal and diabetic rats (toxicokinetic study); format: in vivo, Sprague Dawely rats; conditions: for reduction of AUC0-24 by diabetes / reduction of AUC0-inf by diabetes / reduction of Cmax by diabetes: streptozotocin-diabetic rats
Protocol: Toxicokinetic Effects of Carbamazepine and Formula (1-2) in Diabetic Rats […] Animals were divided into […], normal and diabetic sets; each set was divided into control and three-treated groups where rats received orally carbamazepine and formula (1-2) in dose levels of 100 and 200 mg/kg once daily for 28 days. The pharmacokinetic profiles were carried out over a period of 24 hours. The liver functions were evaluated by the determination of albumin, ALT and AST plasma levels and kidney functions were determined by creatinine and urea. Histopathology of rat's livers and kidneys were also investigated. Carbamazepine plasma levels were determined by a validated HPLC method.

[2] = test system: adult male Sprague Dawely rats; assay: Liver and kidney functions (albumin, ALT, AST, creatinine, urea) after 28 days oral dosing; format: in vivo
Protocol: Toxicokinetic Effects of Carbamazepine and Formula (1-2) in Diabetic Rats
Diabetes was induced in adult male Sprague Dawely rats by streptozotocin (60 mg/kg, ip). Animals were divided into […], normal and diabetic sets; each set was divided into control and three-treated groups where rats received orally carbamazepine and formula (1-2) in dose levels of 100 and 200 mg/kg once daily for 28 days. The pharmacokinetic profiles were carried out over a period of 24 hours. The liver functions were evaluated by the determination of albumin, ALT and AST plasma levels and kidney functions were determined by creatinine and urea. Histopathology of rat's livers and kidneys were also investigated. Carbamazepine plasma levels were determined by a validated HPLC method.

[3] = treated groups, 100 and 200 mg/kg orally once daily for 28 days, P<0.05

NC(=O)N1c2ccccc2C=Cc2ccccc21 [carbamazepine, Carbamazepine]
reduction of AUC0-24 by diabetes ([1]; carbamazepine 100 mg/kg orally): 13.6% | reduction of AUC0-inf by diabetes ([1]; carbamazepine 100 mg/kg orally): 22.8% | reduction of Cmax by diabetes ([1]; carbamazepine 100 mg/kg orally): 6.8% | reduction of AUC0-24 by diabetes ([1]; carbamazepine 200 mg/kg orally): 12.2% | reduction of AUC0-inf by diabetes ([1]; carbamazepine 200 mg/kg orally): 32.8% | reduction of Cmax by diabetes ([1]; carbamazepine 200 mg/kg orally): 20.3% | effect of diabetes on the rate and extent of absorption ([1]; diabetic rats, P<0.05): significantly altered | elevation of liver enzymes, urea and creatinine in diabetic rats compared with normal rats ([2]; diabetic rats): more pronounced in diabetic rats | Liver enzymes levels [2, 3]: significantly elevated | creatinine levels [2, 3]: significantly elevated | urea levels [2, 3]: significantly elevated
